In US9481648B2, “Kinase inhibitors” (Respivert Limited, priority 2013, dated 2016):
Read-outs that look alike come from different tables or passages of the source.

Assays:
[1] = tested on: human hepatocytes; test: Human hepatocyte stability test; assay type: in vitro ADME
Description: (§1) Assessment of certain in vitro ADME (absorption, distribution, metabolism, and excretion) parameters for certain compounds of the invention was conducted by BioFocus (Saffron Walden, UK).

[2] = Human hepatocyte stability test; assay type: in vitro ADME; conditions: human hepatocytes; for hepatocyte CLint: read-out: Mean intrinsic clearance
Description: as §1

[3] = molecular target: GSK 3α (Homo sapiens (Human), UniProt P49840); test: GSK 3α enzyme inhibition (FRET, Z-LYTE; Method 2); assay type: biochemical; conditions: read-out: IC50 Values for Enzyme Inhibition GSK3α
GSK 3α, sequence (P49840 whole entry): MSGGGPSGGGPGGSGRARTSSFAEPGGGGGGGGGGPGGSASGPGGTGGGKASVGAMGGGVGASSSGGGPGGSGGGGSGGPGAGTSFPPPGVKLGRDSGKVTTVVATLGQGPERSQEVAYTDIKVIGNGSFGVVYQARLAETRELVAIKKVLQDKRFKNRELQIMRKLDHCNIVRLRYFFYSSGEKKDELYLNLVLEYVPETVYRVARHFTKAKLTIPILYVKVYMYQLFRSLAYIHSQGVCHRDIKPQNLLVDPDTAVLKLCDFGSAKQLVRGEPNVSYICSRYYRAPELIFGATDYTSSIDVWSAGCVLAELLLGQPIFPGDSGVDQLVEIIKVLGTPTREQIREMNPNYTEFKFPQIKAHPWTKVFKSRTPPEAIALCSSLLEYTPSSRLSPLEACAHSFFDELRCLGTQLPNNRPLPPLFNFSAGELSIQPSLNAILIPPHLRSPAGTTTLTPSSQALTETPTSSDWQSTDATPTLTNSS
How it was run: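 Z-LYTE FRET assay: GSK3-α (500 ng/mL stock) preincubated 105 min at RT with compound at 10, 1, 0.1 or 0.01 μg/mL stock. FRET peptide (8 μM stock) and ATP (40 μM stock) were then added for 1 h, followed by protease development for 1 h. Phosphorylation was read as coumarin/fluorescein emission ratio.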

[4] = Plasma pharmacokinetics and total colon tissue distribution in mice, single oral administration; assay type: in vivo, mouse (male C57BL/6); conditions: male, C57BL/6, mouse, 5 mg/kg
Description: Studies were conducted by Sai Life Sciences (Hinjewadi, Pune, India) to investigate the plasma pharmacokinetics and total colon tissue distribution of compounds of the invention. In particular, pharmacokinetic studies were carried out in: • male C57BL/6 mice, following a single oral administration; and • male Wistar rats following a single intravenous or oral administration.

[5] = tested on: β-catenin in d-U937 cells; test: Accumulation of β catenin in d-U937 cells (assay m); assay type: cell-based, human
How it was run: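 U937 cells were differentiated with PMA (100 ng/mL) for 48–72 hr, then treated with compound or vehicle for 18 hr. After formaldehyde fixation, β-catenin was detected with a primary antibody and an HRP secondary using TMB (OD450–655). Signal was normalised to crystal violet cell staining (OD595).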

[6] = tested on: rat, Cynomolgus macaque or human hepatocytes; test: Analysis of metabolites after incubation with hepatocytes; assay type: in vitro ADME; conditions: 10 μM
Description: Studies were conducted by BioFocus (Saffron Walden, UK) to determine the metabolic fate of the compound of Example 16 following incubation with rat, Cynomolgus macaque or human hepatocytes.
Separate incubations (n=3) of the compound of Example 16 (10 μM initial concentration) or DMSO control, were performed with cryopreserved hepatocytes from each species (0.5 million cell/mL) at 37° C. for 0, 60 and 90 minutes before termination of reactions and compound extraction with acetonitrile. Sample replicates were pooled prior to analysis.
Potential metabolites were identified using time-of-flight (TOF) and triple quadruple (TQ) mass spectrometers.

[7] = plasma, read-out: Median plasma concentration
[8] = total colon, read-out: Median total colon concentration

Row | SMILES | Mean hepatic extraction ratio [1] | half-life [2] [min] | hepatocyte CLint [2] [µL/min/1e6 cells] | IC50 [3] [µM] | concentration at 6 h [4, 7] [ng/mL] | concentration at 1 h [4, 8] [ng/g] | concentration at 2 h [4, 8] [ng/g] | concentration at 4 h [4, 8] [ng/g] | concentration at 6 h [4, 8] [ng/g] | concentration at 8 h [4, 8] [ng/g] | concentration at 12 h [4, 8] [ng/g] | concentration at 24 h [4, 8] [ng/g] | % β-catenin induction ([5]; test compound 1 μg/mL) [%] | % β-catenin induction ([5]; test compound 5 μg/mL) [%] | % β-catenin induction ([5]; test compound 10 μg/mL) [%] | further results
1 | COCCOCCOCCNC(=O)c1cc(Nc2cc(Oc3ccc(NC(=O)Nc4cc(C(C)(C)C)cc(NS(C)(=O)=O)c4OC)c4ccccc34)ccn2)cc(OC)c1 [Example 3, 3-((4-((4-(3-(5-(tert-Butyl)-2-methoxy-3-(methylsulfonamido)phenyl)ureido)naphthalen-1-yl)oxy)pyridin-2-yl)amino)-5-methoxy-N-(2-(2-(2-methoxyethoxy)ethoxy)ethyl)benzamide] | 0.85 | 36 | 39 | 4.32 | 114 | 107 | 274 | 209 | 255 | 278 | 232 | 19.1 | 0 | 4 | 4 | 
2 | COc1c(NC(=O)Nc2ccc(Oc3ccnc(Nc4ccccc4)c3)c3ccccc23)cc(C(C)(C)C)cc1C(=O)NC1COC1 [Example 75, 5-(tert-Butyl)-2-methoxy-N-(oxetan-3-yl)-3-(3-(4-((2-(phenylamino)pyridin-4-yl)oxy)-naphthalen-1-yl)ureido)benzamide] | <0.50 | > 200 | < 7 | 6.03 | 0 | 17.8 | 56.2 | 1340 | 5720 | 350 | 391 | 7.5 | 3 | 25 | 30 | concentration at 1 h [4, 7]: 1.8 ng/mL; concentration at 2 h [4, 7]: 1.5 ng/mL; concentration at 4 h [4, 7]: 0 ng/mL; concentration at 8 h [4, 7]: 0 ng/mL; concentration at 12 h [4, 7]: 0 ng/mL; concentration at 24 h [4, 7]: 0 ng/mL
3 | COc1cc(Nc2cc(Oc3ccc(NC(=O)Nc4cc(C(C)(C)C)cc(NS(C)(=O)=O)c4OC)c4ccccc34)ccn2)cc(C(=O)NCCN2CCOCC2)c1 [Example 27] |  | 96 | 15 | 4.5 |  |  |  |  |  |  |  |  | −12 | −7 | −1 | 
4 | C#Cc1cc(Nc2nccc(Oc3ccc(NC(=O)Nc4cc(C(C)(C)C)cc(NS(C)(=O)=O)c4OC)c4ccccc34)n2)cc(C(=O)NCCOCCOCCOC)c1 [Example 16] |  |  |  |  |  |  |  |  |  |  |  |  |  |  |  | number of metabolites resulting from oxidation on the polyethylene glycol chain of the amide moiety ([6]; hepatocytes): 8; products connected to metabolism at the naphthalene moiety ([6]; hepatocytes): no products were noted; number of metabolites formed in hepatocytes ([6]; rat, Cynomolgus macaque or human hepatocytes, 0, 60 and 90 minutes): 9
5 | COCCOCCOCCOc1cc(Nc2nccc(Oc3ccc(NC(=O)Nc4cc(C(C)(C)C)cc(NS(C)(=O)=O)c4OC)c4ccccc34)n2)cc(OC)c1 [Example 4, N-(5-(tert-Butyl)-2-methoxy-3-(3-(4-((2-((3-methoxy-5-(2-(2-(2-methoxyethoxy)ethoxy)-ethoxy)phenyl)amino)pyrimidin-4-yl)oxy)naphthalen-1-yl)ureido)phenyl)methanesulfonamide] |  | 48 | 29 | 2.66 |  |  |  |  |  |  |  |  | 3 | 20 | 20 | 
